Columns and labels:
DLD1 cells [1] = experiment: Long term response to mitotic stress (colony formation); type: cell-based, human; conditions: 4 hour exposure 12 hours after release, colonies over three weeks
Method: Cells synchronized by a sequential thymidine-aphidicolin block were either not exposed to mitotic stress or exposed to 0.5 μg/ml nocodazole or the TAXOL™ drug for a 4 hour period starting 12 hours after aphidicolin release or release from the G1-S block. The short term response to mitotic stress was evaluated by examining the cell cycle profile at the time of nocodazole removal, 24 or 48 hours later. At the indicated time points, the cells were recovered from the tissue culture plates with trypsin, fixed in 70% ethanol for 10 minutes and incubated with propidium iodide and DNase-free RNase (Roche) in PBS containing 1% fetal bovine serum and 2% Tween-20. The nuclear morphology of the cells was visualized by fluorescence microscopy. The DNA content of the cell population was determined by flow cytometry.
To evaluate the long term response of the cells to survive exposure to mitotic stress, at the time of nocodazole removal, the cells were replated at a density of 200 cells per 100 mm diameter tissue culture dish. The cells were allowed to replicate and colonies were counted 3 weeks later.
To the long term response of the cells to survive exposure to mitotic stress, synchronized DLD1-neo and DLD1-chfr cells were transiently exposed to nocodazole or the TAXOL™ drug, as described above (e.g., exposed to nocodazole or the TAXOL™ drug 12 hours after release from the G1-S block for a 4 hour period). At the time of nocodazole removal, the cells were replated at a density of 200 cells per 100 mm diameter tissue culture dish and then allowed to form colonies over a three-week period.

DLD1 cells [2] = experiment: Centrosome staining of synchronized DLD1-neo and DLD1-chfr cells; type: cell-based, human; conditions: nocodazole added 12 hours after aphidicolin release, 14 hour time point
Method: Cells were grown on 8-well culture slides coated with human fibronectin (Becton Dickinson) and were examined as either non-synchronized or synchronized cells. The cells were prepared for microscopy by washing them three times with KM buffer (10 mM MES, pH 6.2, 10 mM NaCl, 1.5 mM MgCl2, 2.5% glycerol), fixing with 1% paraformaldehyde in 0.5×KM buffer for 15 minutes, washing once with 0.2% Triton X-100 in phosphate buffer saline (PBS) for 20 minutes and three times with PBS. For centrosome staining, the cells were incubated for 1 hour with a 1:500 dilution of autoimmune serum Ab598 in PBS, washed three times with PBS, incubated with a Texas Red-conjugated anti-human secondary antibody (Vector Labs) diluted 1:200 in PBS and washed again three times with PBS. For DNA staining, the cells were incubated with DAP1 ([…] in PBS). The slides were sealed with coverslips using Fluoromount-G (Upstate Biotechnology) and visualized with a fluorescence microscope (Leica). Separate images, acquired using filters corresponding to the excitation maxima of DAP1 and Texas Red, were merged with IRIX image tools (Silicon Graphics).
To correlate the timing of the Chfr effect with progress through the cell cycle, synchronized cells were stained with DAP1 to monitor chromosome condensation and with an antibody that recognizes the centrosomes. […]

cyclin B/cdc2 = experiment: Cdc2 kinase activity in synchronized DLD1 cells; type: cell-based, human; conditions: synchronized DLD1-neo and DLD1-chfr cells treated 12 hours after release from the G1-S block
Method: Whole cell extracts, prepared as described above, were incubated with anti-cyclin B antibody (Santa Cruz) coupled to protein G beads (Pharmacia) in CL buffer for 1 hour. The beads were washed three times with CL buffer and then twice with cdc2 kinase (CK) buffer (50 mM HEPES, pH 7.0, 10 mM MgCl2, 10 mM MnCl2, 200 mM NaCl). The beads were then incubated with 1 μg histone H1 (Upstate Biotechnology) in CK buffer supplemented with 30 mM DTT, 0.06 μM ATP and 1 μCi ^32P-γ-ATP for 20 minutes at 30° C., at which time the reactions were subjected to denaturing gel electrophoresis. Phosphorylation of histone H1 was detected by autoradiography.

[3] = tested on: eight human cancer cell lines (SW480, DLD1, HT29, HCT116, SAOS2, U20S, IMR5 and NGP); experiment: Mitotic index of unsynchronized human cancer cell lines treated with nocodazole; type: cell-based; conditions: 16 hours after nocodazole
Method: All cancer cells were grown in DMEM supplemented with glutamine, penicillin, streptomycin and 10% fetal bovine serum (Life Sciences). Normal human epidermal keratinocytes and osteoblasts were grown in KGM2 and OGM media, respectively (Clonetics). The cells were examined either non-synchronized or synchronized. For synchronization, the cells were treated with 2 mM thymidine for 16 hours, then with 0.25 mM thymidine/deoxycytidine for 9 hours, and then with 0.5 μg/ml aphidicolin for 20–24 hours. The cells were washed three times with PBS between each step [Janss et al., 1998, Exp. Cell Res., 243:29–38]. To induce mitotic stress, synchronized or non-synchronized cells were exposed to 0.5 μg/ml nocodazole, 5 μM of the TAXOL™ drug or 0.5 μg/ml colcemid. Cells were grown on 8-well culture slides coated with human fibronectin (Becton Dickinson) and were examined as either non-synchronized or synchronized cells. […] The slides were sealed with coverslips using Fluoromount-G (Upstate Biotechnology) and visualized with a fluorescence microscope (Leica). […] The cells were scored for Mitotic Index. […]

Chfr = target: T1, Chfr (Homo sapiens, UniProt Q96EP1); experiment: Ubiquitin-protein ligase assay in vitro; type: biochemical; conditions: crude bacterial lysates with E1, GST-Chfr, ubiquitin and ATP
T1 construct: Reactions were performed with full-length Chfr fused to GST; made in house; host or cells: E. coli (crude bacterial lysates)
T1 sequence (Q96EP1 1-664): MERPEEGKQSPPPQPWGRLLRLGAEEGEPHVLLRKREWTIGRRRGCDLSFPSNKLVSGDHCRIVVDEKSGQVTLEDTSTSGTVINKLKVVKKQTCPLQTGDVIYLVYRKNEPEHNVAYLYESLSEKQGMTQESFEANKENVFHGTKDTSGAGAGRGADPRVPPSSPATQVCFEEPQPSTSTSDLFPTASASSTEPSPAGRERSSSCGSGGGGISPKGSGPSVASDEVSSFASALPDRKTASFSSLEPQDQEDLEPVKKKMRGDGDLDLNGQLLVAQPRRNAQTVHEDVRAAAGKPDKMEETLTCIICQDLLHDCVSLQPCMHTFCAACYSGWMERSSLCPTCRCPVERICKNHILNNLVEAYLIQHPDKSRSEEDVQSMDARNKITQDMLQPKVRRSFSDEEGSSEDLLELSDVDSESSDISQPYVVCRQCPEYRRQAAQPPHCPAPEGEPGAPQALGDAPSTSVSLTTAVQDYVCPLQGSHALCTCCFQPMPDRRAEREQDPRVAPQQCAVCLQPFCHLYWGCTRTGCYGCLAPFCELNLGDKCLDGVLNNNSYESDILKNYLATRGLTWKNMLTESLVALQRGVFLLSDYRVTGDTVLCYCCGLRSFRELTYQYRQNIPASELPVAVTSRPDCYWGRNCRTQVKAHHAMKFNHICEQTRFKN
Method: Recombinant E. coli bacterial cells that have been genetically engineered to express the E1 ubiquitin-activating enzyme and the E2 ubiquitin-conjugating enzyme (either UbchD2 or Ubch8) and a […] comprised of glutathione S-transferase fused to the N-terminus of Chfr were lysed. The lysates were incubated in the presence of ubiquitin and ATP and the reaction allowed to proceed for 20 minutes at 30° C. GST-Chfr was captured on glutathione beads, eluted with SDS sample buffer, and resolved by SDS-PAGE. The SDS gel was immunoblotted with antibodies that recognize ubiquitin. Reactions were performed with full-length Chfr fused to GST and reactions were performed with Chfr lacking amino acid residues 1–280 of SEQ ID NO: 2, which contain the FHA domain.

Row | Molecule | number of colony-forming units (CFUs) (DLD1 cells [1]; DLD1-chfr cells) | number of colony-forming units (CFUs) (DLD1 cells [1]; DLD1-neo cells) | centrosome separation (DLD1 cells [2]) | Cyclin B/cdc2 activity (cyclin B/cdc2) | mitotic index (fraction of cells that had condensed chromosomes) ([3]; cell lines that expressed wild-type Chfr) | mitotic index (fraction of cells that had condensed chromosomes) ([3]; cell lines with no detectable Chfr expression and U20S cells (variant chfr)) | ability of the E2 ubiquitin-conjugating enzyme to support ligase activity of Chfr (Chfr)
1 | CC(=O)O[C@H]1C(=O)[C@@]2(C)[C@H]([C@H](OC(=O)c3ccccc3)[C@]3(O)C[C@H](OC(=O)[C@H](O)[C@@H](NC(=O)c4ccccc4)c4ccccc4)C(C)=C1C3(C)C)[C@]1(OC(C)=O)CO[C@@H]1C[C@@H]2O [TAXOL™ drug] | unaffected | decrease |  |  |  |  | 
2 | COC(=O)Nc1nc2ccc(C(=O)c3cccs3)cc2[nH]1 [nocodazole] | unaffected | decrease | inhibited | high | low | high | 
3 | Ubch8: E2 ubiquitin-conjugating enzyme |  |  |  |  |  |  | did not function in this assay

— patent publication US7176293B1, “Compositions and methods to enhance sensitivity of cancer cells to mitotic stress” (The Wistar Institute of Anatomy and Biology, priority 1999, dated 2007)
